Assay results: US20230174649A1, “PHARMACEUTICAL COMPOSITIONS CONTAINING ANTI-CD47 ANTIBODIES” (I-MAB BIOPHARMA US LIMITED, priority 2020, published 2023)

Legend:
[1] = test system: Calreticulin; experiment: FACS analysis of expression level of calreticulin on tumor cell surface; assay type: cell-based, Human; conditions: Toledo cells; for Mean Fluorescence Intensity (MFI) Calreticulin: 12 hours
Description: (§1) For FACS analysis, on the day of analysis (day 1), Toledo cells were seeded into 96 well plate and cultured at a density of 0.2×10^6 cells/well. Then the cells were treated with the selected small molecule therapeutic agents for 12 hours.
(§2) On day 2, cells were harvested, washed twice and then re-suspended in 100 uL FACS buffer subject to FACS analysis. For detection of the expression of calreticulin and CD47, cells were incubated with anti-calreticulin antibody and commercially available anti-CD47 antibody (BD Biosciences, Catalog number: 561249) in dark at 4° C. for 30 mins.
(§3) Then, the cells were subject to FACS analysis. Data was acquired and analyzed.

[2] = test system: HL-60 cells; experiment: Anti-tumor efficacy in subcutaneous HL-60 xenograft model; assay type: in vivo, female NOG mice; conditions: for antitumor activity compared with the control group: day 12; for Tumor volume / Tumor Size (mm^3) at day 12, Mean ± SEM: listed as AZA
Description: HL-60 cells (a human promyelocytic leukemia cell line, ATCC® cat #CCL-240) were maintained in suspension culture in complete cell growth medium at 37° C. in an atmosphere with 5% CO2. The cells were split twice a week to maintain an exponential growth. After culturing, cells were harvested and counted for tumor inoculation.
To establish the xenograft model, HL-60 cells (10×10^6) were suspended in 0.2 mL of PBS with the same volume of Matrigel and subcutaneously injected into the right flank of each mouse. When tumor volume reaches a mean value of approximately 72 mm^3, i.e., on day 6 after inoculation, mice were divided into several groups and treated with PBS (control group), anti-CD47 antibody (i.e., T4J), AZA, or a combination of T4J and AZA, respectively.
At the time of routine monitoring, the animals were daily checked for any effects of tumor growth and treatments on normal behavior such as mobility, food and water consumption (by looking only), body weight gain/loss (body weights were measured twice a week), eye/hair matting and any other abnormal effects. Death and observed clinical signs were recorded.
Tumor size was measured twice a week in two dimensions using a caliper, and the volume was calculated using the formula: Volume (V)=(L×W×W)/2, where L is tumor length (the longest tumor dimension) and W is tumor width (the longest tumor dimension perpendicular to L). The tumor volume was then used for calculating T/C values. The T/C value (in percentage) is an indicator of antitumor effectiveness, in which T and C are the mean volumes of the treatment group and the control groups, respectively.
The percentage of tumor growth inhibition (TGI) was calculated for each group as follows: 100%×(1−[(Vtreated(^final day)−Vtreated(^initial day))/Vcontrol(^final day)−Vcontrol(^initial day)))], where V is the tumor volume.
Tumor body weight was measured at the end of the study. T/C weight value (in percentage) was calculated using the formula: T/C weight %=T weight/C weight×100% where T weight and C weight were the mean tumor body weight of the treatment group and the control group (vehicle group), respectively.
Q=TGI(A+B))/(TGI(A)+TGI(B)−TGI(A)×TGI(B))
According to Jin's formula, Q<0.85 indicates antagonistic effect, 0.85≤Q<1.15 indicates additive effect, and Q≥1.15 indicates synergistic effect.
T-test was performed to compare tumor body weight among groups. One-way ANOVA was performed to compare tumor volume among groups, and when a significant F-statistics (a ratio of treatment variance to the error variance) was obtained, comparisons between groups were carried out with Games-Howell test. All data were analyzed using IBM SPSS software. A P value of less than 0.05 (p<0.05) was considered statistically significant.

[3] = test system: CD47; experiment: FACS analysis of expression level of CD47 on tumor cell surface; assay type: cell-based, Human; conditions: Toledo cells; for Mean Fluorescence Intensity (MFI) CD47: 12 hours
Description: as §1, §2, §3

[4] = test system: Toledo Cells; experiment: FACS-based phagocytosis assay, macrophages cocultured with Toledo cells; assay type: cell-based, Human
Description: FACS-based phagocytosis assays were performed to evaluate the phagocytic abilities of macrophages.
Toledo Cells (a tumor cell line, as a target) were labelled with CellTrace™ Far Red and plated into 96-well plate at a density of 0.15×10^6 cells/well for 12 hours. The Macrophages were prepared as discussed above and then labelled with CellTrace Violet. Next, the macrophages were added into the plate as an effector at an effector:target (Toledo) ratio of 1:3, giving a final density of macrophages at 0.05×10^6 cells/well. Macrophages and tumor cells were cocultured for 2-6 h at 37° C. in the presence of the indicated treatments (small molecule therapeutic agents, CD47 antibody, CD20 antibody or combinations). The incubation time depending on the phagocytosis rate, expecting phagocytosis of 5-20% cells.
Then, cells were acquired and data were analyzed.

Compound: Nc1ncn([C@@H]2O[C@H](CO)[C@@H](O)[C@H]2O)c(=O)n1 [Azacitidine]
- Mean Fluorescence Intensity (MFI) Calreticulin ([1]; 0.008 uM): 65.8
- Mean Fluorescence Intensity (MFI) Calreticulin ([1]; 0.04 uM): 71.9
- Mean Fluorescence Intensity (MFI) Calreticulin ([1]; 0.2 uM): 88.4
- Mean Fluorescence Intensity (MFI) Calreticulin ([1]; 1 uM): 174
- Mean Fluorescence Intensity (MFI) Calreticulin ([1]; 5 uM): 491
- increase of the expression level of calreticulin ([1]; dose of 5 μM): about 20 folds
- antitumor activity compared with the control group ([2]; 1 mg/kg): no obvious antitumor activity
- antitumor activity compared with the control group ([2]; 2 mg/kg): certain anti-tumor activity
- Tumor volume (mm^3), Mean ± SEM ([2]; day 0 (first dosing), 1 mg/kg): 70 ± 7 mm^3
- Tumor volume (mm^3), Mean ± SEM ([2]; day 0 (first dosing), 2 mg/kg): 70 ± 7 mm^3
- Tumor volume (mm^3), Mean ± SEM ([2]; day 3, 1 mg/kg): 189 ± 11 mm^3
- Tumor volume (mm^3), Mean ± SEM ([2]; day 3, 2 mg/kg): 161 ± 20 mm^3
- Tumor volume (mm^3), Mean ± SEM ([2]; day 7, 1 mg/kg): 589 ± 41 mm^3
- Tumor volume (mm^3), Mean ± SEM ([2]; day 7, 2 mg/kg): 498 ± 82 mm^3
- Tumor volume (mm^3), Mean ± SEM ([2]; day 10, 1 mg/kg): 1142 ± 86 mm^3
- Tumor volume (mm^3), Mean ± SEM ([2]; day 10, 2 mg/kg): 773 ± 145 mm^3
- T/C (%) ([2]; day 12, 1 mg/kg): 70.21%
- TGI (%) ([2]; day 12, 1 mg/kg): 30.52%
- Tumor volume / Tumor Size (mm^3) at day 12, Mean ± SEM ([2]; day 12, 1 mg/kg): 2081±177 mm^3
- T/C (%) ([2]; day 12, 2 mg/kg): 48.98%
- TGI (%) ([2]; day 12, 2 mg/kg): 52.27%
- Tumor volume / Tumor Size (mm^3) at day 12, Mean ± SEM ([2]; day 12, 2 mg/kg): 1452±253 mm^3
- Mean Fluorescence Intensity (MFI) CD47 ([3]; 0.008 uM): 8204
- Mean Fluorescence Intensity (MFI) CD47 ([3]; 0.04 uM): 8062
- Mean Fluorescence Intensity (MFI) CD47 ([3]; 0.2 uM): 8460
- Mean Fluorescence Intensity (MFI) CD47 ([3]; 1 uM): 6638
- Mean Fluorescence Intensity (MFI) CD47 ([3]; 5 uM): 5229
- inhibition of CD47 expression ([3]; dose of 5 μM): ~50%
- macrophage phagocytosis (untreated = 1.00) ([4]; Cpd 0.0016 uM, T4J = 0, R = 0): 1.09
- macrophage phagocytosis (untreated = 1.00) ([4]; Cpd 0.0016 uM, T4J = 0, R = 0.01 ug/ml): 1.63
- macrophage phagocytosis (untreated = 1.00) ([4]; Cpd 0.0016 uM, T4J = 0.1 ug/ml, R = 0): 2.66
- macrophage phagocytosis (untreated = 1.00) ([4]; Cpd 0.0016 uM, T4J = 0.1 ug/ml, R = 0.01 ug/ml): 3.26
- macrophage phagocytosis (untreated = 1.00) ([4]; Cpd 0.008 uM, T4J = 0, R = 0): 1.07
- macrophage phagocytosis (untreated = 1.00) ([4]; Cpd 0.008 uM, T4J = 0, R = 0.01 ug/ml): 1.73
- macrophage phagocytosis (untreated = 1.00) ([4]; Cpd 0.008 uM, T4J = 0.1 ug/ml, R = 0): 2.69
- macrophage phagocytosis (untreated = 1.00) ([4]; Cpd 0.008 uM, T4J = 0.1 ug/ml, R = 0.01 ug/ml): 3.18
- macrophage phagocytosis (untreated = 1.00) ([4]; Cpd 0.04 uM, T4J = 0, R = 0): 1.12
- macrophage phagocytosis (untreated = 1.00) ([4]; Cpd 0.04 uM, T4J = 0, R = 0.01 ug/ml): 1.71
- macrophage phagocytosis (untreated = 1.00) ([4]; Cpd 0.04 uM, T4J = 0.1 ug/ml, R = 0): 2.76
- macrophage phagocytosis (untreated = 1.00) ([4]; Cpd 0.04 uM, T4J = 0.1 ug/ml, R = 0.01 ug/ml): 3.29
- macrophage phagocytosis (untreated = 1.00) ([4]; Cpd 0.2 uM, T4J = 0, R = 0): 1.16
- macrophage phagocytosis (untreated = 1.00) ([4]; Cpd 0.2 uM, T4J = 0, R = 0.01 ug/ml): 1.69
- macrophage phagocytosis (untreated = 1.00) ([4]; Cpd 0.2 uM, T4J = 0.1 ug/ml, R = 0): 2.57
- macrophage phagocytosis (untreated = 1.00) ([4]; Cpd 0.2 uM, T4J = 0.1 ug/ml, R = 0.01 ug/ml): 3.13
- macrophage phagocytosis (untreated = 1.00) ([4]; Cpd 1 uM, T4J = 0, R = 0): 1.30
- macrophage phagocytosis (untreated = 1.00) ([4]; Cpd 1 uM, T4J = 0, R = 0.01 ug/ml): 1.94
- macrophage phagocytosis (untreated = 1.00) ([4]; Cpd 1 uM, T4J = 0.1 ug/ml, R = 0): 2.70
- macrophage phagocytosis (untreated = 1.00) ([4]; Cpd 1 uM, T4J = 0.1 ug/ml, R = 0.01 ug/ml): 3.45
- phagocytic ability of macrophages ([4]; agent itself or antibody combination): can also enhance the phagocytic ability of macrophages
- phagocytic ability of macrophages ([4]; triple combination: T4J, Rituximab and the small molecule): enhances the phagocytic ability of macrophages much higher
